In ChEMBL document CHEMBL3638719, “Carbazole and carboline kinase inhibitors” (2014) one finds IC50 data, which are given here for two compounds.

SMILES strings stand for the structures. pIC50: −log10 of the molar value.

In this assay the target is Tyrosine-protein kinase JAK2 (Homo sapiens, UniProt O60674). In words: Tyrosine Kinase Assay: The assays were performed in V-bottom 384-well plates. […] The reaction was initiated by the combination of JAK2 with substrates and test compounds. The reaction was incubated at room temperature for 60 min. and terminated by adding 45 ul of 35 mM EDTA to each sample. The reaction mixture was analyzed on the Caliper LABCHIP 3000 by electrophoretic separation of the fluorescent substrate and phosphorylated product.

As a reminder, the pIC50 is −log10 of the IC50, conventionally taken in molar units.

Sequence of Tyrosine-protein kinase JAK2 (O60674 whole entry): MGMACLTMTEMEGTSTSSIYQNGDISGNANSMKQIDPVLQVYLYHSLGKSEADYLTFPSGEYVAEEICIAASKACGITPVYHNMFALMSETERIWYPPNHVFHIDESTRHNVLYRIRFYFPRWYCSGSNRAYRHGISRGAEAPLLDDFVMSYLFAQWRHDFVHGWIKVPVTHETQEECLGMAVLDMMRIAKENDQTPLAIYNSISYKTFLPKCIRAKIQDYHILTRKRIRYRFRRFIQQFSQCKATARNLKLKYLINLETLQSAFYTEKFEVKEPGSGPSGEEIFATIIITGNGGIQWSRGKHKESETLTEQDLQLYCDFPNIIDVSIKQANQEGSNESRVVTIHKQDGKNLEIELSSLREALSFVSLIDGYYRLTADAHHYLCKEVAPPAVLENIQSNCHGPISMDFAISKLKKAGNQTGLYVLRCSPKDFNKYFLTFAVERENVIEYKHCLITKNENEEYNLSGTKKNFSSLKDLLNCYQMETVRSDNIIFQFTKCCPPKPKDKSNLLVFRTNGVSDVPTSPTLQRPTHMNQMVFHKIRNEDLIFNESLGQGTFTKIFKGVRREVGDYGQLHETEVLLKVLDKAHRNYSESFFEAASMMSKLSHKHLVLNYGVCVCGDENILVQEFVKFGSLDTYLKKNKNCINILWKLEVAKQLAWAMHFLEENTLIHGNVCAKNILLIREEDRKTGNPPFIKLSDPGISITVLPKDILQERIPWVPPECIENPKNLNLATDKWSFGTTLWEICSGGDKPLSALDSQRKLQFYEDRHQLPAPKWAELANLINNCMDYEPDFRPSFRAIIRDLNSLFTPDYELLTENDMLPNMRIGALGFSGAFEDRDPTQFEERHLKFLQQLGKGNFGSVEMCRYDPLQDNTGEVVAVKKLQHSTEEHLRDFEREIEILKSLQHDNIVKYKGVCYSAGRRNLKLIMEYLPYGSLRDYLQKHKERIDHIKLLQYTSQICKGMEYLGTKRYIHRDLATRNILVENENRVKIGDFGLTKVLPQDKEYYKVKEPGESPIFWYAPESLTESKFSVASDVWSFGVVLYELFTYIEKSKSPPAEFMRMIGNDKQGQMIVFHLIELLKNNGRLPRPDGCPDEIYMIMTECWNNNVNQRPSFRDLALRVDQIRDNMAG

For `COc1cccc(-c2cc(C(N)=O)c3[nH]c4cc(NC(=O)OC(C)(C)C)ccc4c3c2)c1`, the pIC50 was 6.80.

With `COc1ccc(-c2cc(C(N)=O)c3[nH]c4cc(C(=O)N5CCCC(C)(O)C5)ccc4c3c2)cc1F` (configuration not stated), the pIC50 was 9.00.
